Laboratory results published in patent US10351591B2, “Polypeptides, peptides, and proteins functionalized by alkylation of thioether groups via ring-opening reactions” (The Regents of the University of California, priority 2015, dated 2019).

What was measured:
[1] = potent nucleophile 2-mercaptopyridine; 37° C., 24 h
[2] = Poly(S-alkyl-L-methionine) stability studies in aqueous buffers; assay type: physicochemical; conditions: aqueous buffers ranging in pH from 5 to 9; 37° C., 24 h; S-alkyl-Met/Met ratio by 1H NMR
Description: The mixture was incubated on a 37° C. H2O bath for 24 h. […] The retentate was lyophilized.

Poly(S-(3-azido-2-hydroxypropyl)-L-methionine sulfonium chloride) [compound 4]
stability against dealkylation by nucleophile [1]: quite stable | stability in aqueous buffers [2]: good stability
